{"source": "patent US5955053A", "about": "“Metal chelates as pharmaceutical imaging agents, processes of making such and uses thereof” (Emory University, priority 1996, dated 1999)", "key": {"[1]": {"experiment": "Normal volunteer studies: plasma clearance, urinary excretion and imaging", "format": "in vivo, human", "details": "humans; for Clearance rate (EC/OIH): ± spread as printed", "procedure": "^99m Tc LL-EC, DD-EC and DL-EC were each evaluated in three normal male volunteers. The HPLC purified complexes and phosphate-buffered saline (pH 7.0) were passed through a SEP-PAK Plus C18 cartridge (primed with 1 ml ethanol) and a sterile Millex-GS 0.22 μm filter unit into a sterile, pyrogen-free empty vial. The final concentration was ~2.0 mCi/2.5 ml and the final pH ranged from 5.7 to 7.4. Test samples of each complex were sterile and pyrogen free. Approximately 2 mCi of each ^99m Tc complex were coinjected with 200 μCi of I-131 OIH and plasma samples were obtained at 5, 10, 15, 20, 30 45, 60 and 90 minutes postinjection. The plasma clearances of I-131 OIH and each EC complex were determined using the single injection, two-compartment model of Sapirstein et al., Am. J. Physiol. 181:330-336. The volunteers voided at 30, 90 and 180 minutes postinjection to determine the percent dose in the urine at each time period. A urine sample from the 30 minute urine collection was obtained for HPLC analysis from one of the normal volunteers and analyzed for each complex. One volunteer was imaged with each complex using a simultaneous acquisition with a 20% window centered over the 363 KeV photopeak of I-131 and a second 20% window over the 140 KeV photopeak of ^99m Tc. Data were acquired in a 128×128 matrix using a three phase dynamic acquisition: phase 1 consisted of 24 two second frames, phase 2 consisted of 16 fifteen second frames and phase 3 consisted of 40 thirty second frames. Data were acquired using a general Electric (Milwaukee, Wis.) Star-Cam computer fitted with a high energy collimator. All studies were performed with the approval of the Human Investigations Committee and a signed consent form was obtained."}, "[2]": {"experiment": "Biodistribution in normal rats", "format": "in vivo, rat", "details": "^99m Tc", "procedure": "Tracheostomy was performed in an anesthetized rat and the left jugular vein was cannulated with one piece of PE-50 tubing for injection of the ^99m Tc radiopharmaceutical. The bladder was catheterized utilizing heat flared PE-50 tubing for urine collection. […] Each animal was sacrificed at the conclusion of the dynamic study and simultaneous static images of the isolated lungs, heart, liver, spleen, stomach, kidneys, bowel and bladder with urine were acquired as well as a static image of the rat carcass without the organs. Total counts for the injected dose were determined from the sum of the isolated organ counts and the carcass counts decay corrected to the time of organ imaging. Regions of interest were drawn around each organ to determined the percent injected dose in each organ."}, "[3]": {"experiment": "Renal clearance / renal excretion in rats (statements in words)", "format": "in vivo, rat", "details": "for Renal clearance of DD-EC compared to LL-EC: vs LL-isomer", "procedure": "Tracheostomy was performed in an anesthetized rat and the left jugular vein was cannulated with one piece of PE-50 tubing for injection of the ^99m Tc radiopharmaceutical. The bladder was catheterized utilizing heat flared PE-50 tubing for urine collection. A bolus injection of the radiopharmaceutical (400-500 μCi/0.25 ml) was given and the rat was imaged (1 frame/10 s) for 22 minutes (130 frames) using a gamma camera. Each animal was sacrificed at the conclusion of the dynamic study and simultaneous static images of the isolated lungs, heart, liver, spleen, stomach, kidneys, bowel and bladder with urine were acquired as well as a static image of the rat carcass without the organs. Total counts for the injected dose were determined from the sum of the isolated organ counts and the carcass counts decay corrected to the time of organ imaging. Regions of interest were drawn around each organ to determined the percent injected dose in each organ."}, "[4]": {"details": "physiological pH; cited from earlier work"}, "[5]": {"experiment": "Stability of metal chelates", "format": "physicochemical"}, "[6]": {"details": "mice; cited from earlier work"}, "[7]": {"details": "in vivo; cited from earlier work"}, "[8]": {"details": "mice and baboons; cited from earlier work"}, "[9]": {"details": "cited from earlier work"}, "[10]": {"details": "% of that of OIH; cited from earlier work"}, "[11]": {"details": "normal volunteers; increases in renal failure; cited from earlier work"}, "[12]": {"details": "cited from earlier work", "remark": "listed apart in the source"}, "[13]": {"details": "in vivo; cited from earlier work", "remark": "listed apart in the source"}, "[14]": {"details": "in vivo; cited from earlier work", "remark": "listed apart in the source"}, "[15]": {"details": "in vivo; cited from earlier work", "remark": "listed apart in the source"}, "[16]": {"details": "cited from earlier work", "remark": "listed apart in the source"}}, "note": "Like-named read-outs stand apart in the source and are kept apart here.", "data": [{"molecule": "O=C(O)[C@@H](CS)NCCN[C@H](CS)C(=O)O", "note": "(99mTc complex, metal not drawn) [D,D-EC, D,D-ethylenedicysteine]", "values": [{"measurement": "Imaging properties", "setting": "[1]", "value": "excellent imaging properties"}, {"measurement": "Rate of excretion in the urine", "setting": "[1]", "value": "excreted at essentially the same rate in the urine"}, {"measurement": "Clearance rate (EC/OIH)", "setting": "[1]", "value": "82 ±8", "unit": "%"}, {"measurement": "Biodistribution: Bladder", "setting": "[2]; 22 minutes post injection", "value": "63.2% of total activity"}, {"measurement": "Biodistribution: Carcass", "setting": "[2]; 22 minutes post injection", "value": "25.4% of total activity"}, {"measurement": "Biodistribution: Intestines", "setting": "[2]; 22 minutes post injection", "value": "2.6% of total activity"}, {"measurement": "Biodistribution: Kidneys", "setting": "[2]; 22 minutes post injection", "value": "5.4% of total activity"}, {"measurement": "Biodistribution: Liver", "setting": "[2]; 22 minutes post injection", "value": "2.9% of total activity"}, {"measurement": "Biodistribution: Stomach", "setting": "[2]; 22 minutes post injection", "value": "< 1% of total activity"}, {"measurement": "Renal clearance of DD-EC compared to LL-EC", "setting": "[3]", "value": "superior to L,L-EC in rats"}, {"measurement": "Renal clearance of DD-EC compared to LL-EC", "setting": "[3]; listed as DD-EC", "value": "significantly higher than that of its LL-isomer"}, {"measurement": "Renal clearance / excretion compared to MAG3", "setting": "[3]; vs ^99m Tc MAG3", "value": "more rapid renal clearance than ^99m Tc MAG3"}, {"measurement": "Renal clearance / excretion compared to MAG3", "setting": "[3]; vs ^99m Tc MAG3, listed as DD-EC", "value": "significantly higher"}, {"measurement": "Dianionic form", "setting": "[4]", "value": 80, "unit": "%"}, {"measurement": "Monoanionic form", "setting": "[4]", "value": 20, "unit": "%"}]}, {"molecule": "CC(C)(S)C(=O)NCCCNC(=S)NCCC(=O)O", "note": "[(Me)2 -TAPTU-EtCOOH, dimethylthioacetamidepropylthiourea-ethylCOOH]", "values": [{"measurement": "Stability compared with corresponding thioacetamidethiourea derivative", "setting": "[5]", "value": "greater stability than the corresponding thioacetamidethiourea derivative"}, {"measurement": "Stability compared with corresponding thioacetamidethiourea derivative", "setting": "[5]; listed as dimethyl-TAPTU-EtCOOH", "value": "more stable than the corresponding thioacetamide-thiourea derivative"}]}, {"molecule": "O=C([O-])[C@H](C[S-])NCCN[C@@H](CS)C(=O)[O-].[O]=[Tc+3]", "note": "[L,L-EC, L,L-ethylenedicysteine, reference compound]", "values": [{"measurement": "Rate of excretion in the urine", "setting": "[1]", "value": "excreted at essentially the same rate in the urine"}, {"measurement": "Clearance rate (EC/OIH)", "setting": "[1]", "value": "70 ±3", "unit": "%"}, {"measurement": "Excretion into the urine", "setting": "[6]", "value": "rapidly and efficiently excreted into the urine in mice"}, {"measurement": "Biodistribution: Bladder", "setting": "[2]; 22 minutes post injection", "value": "45.6% of total activity"}, {"measurement": "Biodistribution: Carcass", "setting": "[2]; 22 minutes post injection", "value": "22.6% of total activity"}, {"measurement": "Biodistribution: Intestines", "setting": "[2]; 22 minutes post injection", "value": "1.8% of total activity"}, {"measurement": "Biodistribution: Kidneys", "setting": "[2]; 22 minutes post injection", "value": "24.4% of total activity"}, {"measurement": "Biodistribution: Liver", "setting": "[2]; 22 minutes post injection", "value": "4.5% of total activity"}, {"measurement": "Biodistribution: Stomach", "setting": "[2]; 22 minutes post injection", "value": "< 1% of total activity"}, {"measurement": "Excretion by the kidneys", "setting": "[7]", "value": "excreted rapidly and efficiently by the kidneys"}, {"measurement": "Comparison to enantiomer DD-EC", "setting": "[8]", "value": "superior to the enantiomer ^99m Tc DD-EC"}, {"measurement": "Pharmacokinetic properties relative to OIH and MAG3", "setting": "[8]", "value": "more closely approached those of OIH than the properties of MAG3"}, {"measurement": "Dianionic form", "setting": "[4]", "value": 80, "unit": "%"}, {"measurement": "Monoanionic form", "setting": "[4]", "value": 20, "unit": "%"}]}, {"molecule": "O=C([O-])CN=C([O-])CN=C([O-])CN=C([O-])C[S-].[O]=[99Tc+3]", "note": "[MAG3, technetium-99m (^99m Tc) mercaptoacetyltriglycine, reference compound]", "values": [{"measurement": "Plasma-protein binding", "setting": "[9]", "value": "very high"}, {"measurement": "Clearance relative to OIH", "setting": "[10]", "value": "50-60%"}, {"measurement": "Transport into the small intestine via the hepatobiliary system", "setting": "[11]", "value": "a small percentage"}, {"measurement": "Clearance compared to DTPA", "setting": "[12]; in vivo", "value": "higher clearance"}, {"measurement": "Biodistribution: Bladder", "setting": "[2]; 22 minutes post injection", "value": "57% of total activity"}, {"measurement": "Biodistribution: Carcass", "setting": "[2]; 22 minutes post injection", "value": "14% of total activity"}, {"measurement": "Biodistribution: Intestines", "setting": "[2]; 22 minutes post injection", "value": "5% of total activity"}, {"measurement": "Biodistribution: Kidneys", "setting": "[2]; 22 minutes post injection", "value": "23% of total activity"}, {"measurement": "Biodistribution: Liver", "setting": "[2]; 22 minutes post injection", "value": "1% of total activity"}, {"measurement": "Biodistribution: Stomach", "setting": "[2]; 22 minutes post injection", "value": "< 1% of total activity"}]}, {"molecule": "C[C@H](NC(=O)CNC(=O)CS)C(=O)NCC(=O)O", "note": "[MAGAG, mercaptoacetylglycylalanylglycine]", "values": [{"measurement": "Comparison of diastereomers to MAG3", "setting": "[13]", "value": "one diastereomer comparable and the other considerably inferior"}]}, {"molecule": "O=C(O)CNC(=O)c1ccccc1[131I]", "note": "[OIH, ^131 I-orthohippurate]", "values": [{"measurement": "Clearance relative to PAH", "setting": "[12]; % of the clearance of PAH", "value": 83, "unit": "%"}]}, {"molecule": "D,L-ethylenedicysteine [DL-EC]", "values": [{"measurement": "Rate of excretion in the urine", "setting": "[1]", "value": "slower rate of excretion"}, {"measurement": "Clearance rate (EC/OIH)", "setting": "[1]", "value": "40 ±5", "unit": "%"}]}, {"molecule": "L-cysteinylethylenepyridine carboxamide [L-CEPIC]", "values": [{"measurement": "Biodistribution: Bladder", "setting": "[2]; 30 minutes post injection", "value": "58.2% of total activity"}, {"measurement": "Biodistribution: Carcass", "setting": "[2]; 30 minutes post injection", "value": "19.8% of total activity"}, {"measurement": "Biodistribution: Intestines", "setting": "[2]; 30 minutes post injection", "value": "6.4% of total activity"}, {"measurement": "Biodistribution: Kidneys", "setting": "[2]; 30 minutes post injection", "value": "7.2% of total activity"}, {"measurement": "Biodistribution: Liver", "setting": "[2]; 30 minutes post injection", "value": "4.8% of total activity"}, {"measurement": "Biodistribution: Stomach", "setting": "[2]; 30 minutes post injection", "value": "1.9% of total activity"}, {"measurement": "Removal by the kidneys", "setting": "[3]", "value": "rapid and selective removal"}, {"measurement": "Uptake in other major organs", "setting": "[3]", "value": "only trace amounts"}, {"measurement": "Renal clearance / excretion compared to MAG3", "setting": "[3]; vs ^99m Tc MAG3", "value": "even more rapidly excreted by the kidneys than ^99m Tc MAG3"}]}, {"molecule": "^99m Tc L,L-ethylenedicysteine diethyl ester [LL-ECD]", "values": [{"measurement": "Brain perfusion agent", "setting": "[14]", "value": "good brain perfusion agent"}]}, {"molecule": "^99m Tc mercaptoacetylglycylglycyl-L-alanine [MAG2-Ala]", "values": [{"measurement": "Characteristics as imaging agents", "setting": "[15]", "value": "promising characteristics as imaging agents"}]}, {"molecule": "^99m Tc mercaptoacetylglycylglycyl-L-asparagine [MAG2-Asn]", "values": [{"measurement": "Characteristics as imaging agents", "setting": "[15]", "value": "promising characteristics as imaging agents"}]}, {"molecule": "^99m Tc mercaptoacetylglycylglycyl-L-glutamine [MAG2-Gln]", "values": [{"measurement": "Characteristics as imaging agents", "setting": "[15]", "value": "promising characteristics as imaging agents"}]}, {"molecule": "^99m Tc mercaptoacetylglycylglycyl-taurine", "values": [{"measurement": "Comparison to MAG3 in dogs", "setting": "[16]", "value": "inferior to ^99m Tc MAG3 in dogs"}]}, {"molecule": "thioacetamidethiourea-ethylCOOH [TATU-EtCOOH]", "values": [{"measurement": "Renal clearance / excretion compared to MAG3", "setting": "[3]; vs ^99m Tc MAG3", "value": "superior renal clearance"}]}, {"molecule": "thioacetamidethiourea-para-phenylCOOH [TATU-pPhCOOH]", "values": [{"measurement": "Rate of renal clearance", "setting": "[3]", "value": "cleared at a moderate rate"}]}]}
